Assay results published in article PMC5218480 (PLoS ONE, 2017).

Tested on: MV-4-11 cells
Assay: Gene expression microarray analysis (Affymetrix PrimeView) and GSEA
Format: cell-based, human
Set-up: RFU PODN (11730768_x_at) / Fold change /veh PODN (11730768_x_at) / RFU LINC00158 (11744669_a_at) / Fold change /veh LINC00158 (11744669_a_at) / RFU DUSP10 (11751237_a_at) / Fold change /veh DUSP10 (11751237_a_at) / RFU ID3 (11757404_x_at) / Fold change /veh ID3 (11757404_x_at) / RFU PLEKHG5 (11737974_s_at) / Fold change /veh PLEKHG5 (11737974_s_at) / RFU LRRC4B (11730491_at) / Fold change /veh LRRC4B (11730491_at) / RFU GIMAP4 (11747438_a_at) / Fold change /veh GIMAP4 (11747438_a_at) / RFU KRT8 (11758183_x_at) / Fold change /veh KRT8 (11758183_x_at) / RFU CNN1 (11734310_a_at) / Fold change /veh CNN1 (11734310_a_at) / RFU VPS37D (11726825_at) / Fold change /veh VPS37D (11726825_at) / RFU C10orf10 (11716522_x_at) / Fold change /veh C10orf10 (11716522_x_at) / RFU KIR2DL2 /// KIR2DL4 /// KIR2DL5A /// KIR2DL5B /// KIR2DS1 /// KIR2DS2 /// KIR2DS3 /// KIR2DS4 /// KIR3DL3 /// KIR3DL3 /// KIR3DS1 (11738374_at) / Fold change /veh KIR2DL2 /// KIR2DL4 /// KIR2DL5A /// KIR2DL5B /// KIR2DS1 /// KIR2DS2 /// KIR2DS3 /// KIR2DS4 /// KIR3DL3 /// KIR3DL3 /// KIR3DS1 (11738374_at) / RFU C1QL1 (11718748_at) / Fold change /veh C1QL1 (11718748_at) / RFU TMPRSS4 (11747572_a_at) / Fold change /veh TMPRSS4 (11747572_a_at) / RFU HAMP (11756126_x_at) / Fold change /veh HAMP (11756126_x_at) / RFU RNFT2 (11725882_a_at) / Fold change /veh RNFT2 (11725882_a_at) / RFU NR4A2 (11747474_a_at) / Fold change /veh NR4A2 (11747474_a_at) / RFU ABCC12 (11746883_a_at) / Fold change /veh ABCC12 (11746883_a_at) / RFU TMEM136 (11760407_x_at) / Fold change /veh TMEM136 (11760407_x_at) / RFU CLDN22 /// WWC2 (11732394_at) / Fold change /veh CLDN22 /// WWC2 (11732394_at) / RFU HLA-DPB1 (11760878_x_at) / Fold change /veh HLA-DPB1 (11760878_x_at) / RFU SPINT1 (11716480_a_at) / Fold change /veh SPINT1 (11716480_a_at) / RFU GAP43 (11754022_s_at) / Fold change /veh GAP43 (11754022_s_at) / RFU A4GNT (11735810_at) / Fold change /veh A4GNT (11735810_at) / RFU PRB3 (11715151_x_at) / Fold change /veh PRB3 (11715151_x_at) / RFU TUBB4B (11761932_at) / Fold change /veh TUBB4B (11761932_at) / RFU CAPN14 (11732068_a_at) / Fold change /veh CAPN14 (11732068_a_at) / RFU TMCC2 (11721928_a_at) / Fold change /veh TMCC2 (11721928_a_at) / RFU IRGQ (11745062_a_at) / Fold change /veh IRGQ (11745062_a_at) / RFU FAM174B (11720279_a_at) / Fold change /veh FAM174B (11720279_a_at) / RFU TMPRSS4 (11748680_a_at) / Fold change /veh TMPRSS4 (11748680_a_at) / RFU FAM212B (11763350_a_at) / Fold change /veh FAM212B (11763350_a_at) / RFU PLEKHG5 (11743358_a_at) / Fold change /veh PLEKHG5 (11743358_a_at) / RFU ZSCAN30 (11745921_a_at) / Fold change /veh ZSCAN30 (11745921_a_at) / RFU CMKLR1 (11741424_a_at) / Fold change /veh CMKLR1 (11741424_a_at) / RFU LOC101060620 /// MAPK8IP1 (11723275_at) / Fold change /veh LOC101060620 /// MAPK8IP1 (11723275_at) / RFU SPTSSB (11747773_x_at) / Fold change /veh SPTSSB (11747773_x_at) / RFU PRSS12 (11739890_at) / Fold change /veh PRSS12 (11739890_at) / RFU BIN1 (11741810_x_at) / Fold change /veh BIN1 (11741810_x_at) / RFU WNT11 (11732464_a_at) / Fold change /veh WNT11 (11732464_a_at) / RFU C10orf10 (11716521_a_at) / Fold change /veh C10orf10 (11716521_a_at) / RFU C5orf56 (11738089_at) / Fold change /veh C5orf56 (11738089_at) / RFU CYB561 (11721691_x_at) / Fold change /veh CYB561 (11721691_x_at) / RFU ANKRD19P (11752326_a_at) / Fold change /veh ANKRD19P (11752326_a_at) / RFU OR2T12 /// OR2T33 /// OR2T8 (11738714_s_at) / Fold change /veh OR2T12 /// OR2T33 /// OR2T8 (11738714_s_at) / RFU VCAN (11748164_a_at) / Fold change /veh VCAN (11748164_a_at) / RFU JSRP1 (11732532_at) / Fold change /veh JSRP1 (11732532_at) / RFU KRTAP10-11 (11738290_x_at) / Fold change /veh KRTAP10-11 (11738290_x_at) / RFU MYO3A (11730013_a_at) / Fold change /veh MYO3A (11730013_a_at) / RFU EBF3 (11725865_a_at) / Fold change /veh EBF3 (11725865_a_at) / RFU CAMK2N1 (11719241_x_at) / Fold change /veh CAMK2N1 (11719241_x_at) / RFU C5orf56 (11738088_a_at) / Fold change /veh C5orf56 (11738088_a_at) / RFU OLFML3 (11715873_a_at) / Fold change /veh OLFML3 (11715873_a_at) / RFU LOC100653217 /// NTM (11731650_a_at) / Fold change /veh LOC100653217 /// NTM (11731650_a_at) / RFU MAPK11 (11762145_a_at) / Fold change /veh MAPK11 (11762145_a_at) / RFU FIZ1 (11724087_x_at) / Fold change /veh FIZ1 (11724087_x_at) / RFU OASL (11726364_x_at) / Fold change /veh OASL (11726364_x_at) / RFU SOX15 (11748057_x_at) / Fold change /veh SOX15 (11748057_x_at) / RFU CD79A (11719716_a_at) / Fold change /veh CD79A (11719716_a_at) / RFU HIST1H1D (11736915_at) / Fold change /veh HIST1H1D (11736915_at) / RFU CASKIN2 (11723855_a_at) / Fold change /veh CASKIN2 (11723855_a_at) / RFU LOC730098 (11760151_x_at) / Fold change /veh LOC730098 (11760151_x_at) / RFU OR4N2 (11742367_at) / Fold change /veh OR4N2 (11742367_at) / RFU PRRT2 (11749266_a_at) / Fold change /veh PRRT2 (11749266_a_at) / RFU SNX32 (11753110_a_at) / Fold change /veh SNX32 (11753110_a_at) / RFU CDHR5 (11726645_a_at) / Fold change /veh CDHR5 (11726645_a_at) / RFU RCAN1 (11760418_a_at) / Fold change /veh RCAN1 (11760418_a_at) / RFU FAM167A (11723789_a_at) / Fold change /veh FAM167A (11723789_a_at) / RFU FAM26E (11764081_at) / Fold change /veh FAM26E (11764081_at) / RFU ISYNA1 (11749810_s_at) / Fold change /veh ISYNA1 (11749810_s_at) / RFU ACY1 (11761880_at) / Fold change /veh ACY1 (11761880_at) / RFU 11764098_at / Fold change /veh 11764098_at / RFU SAMD14 (11745864_x_at) / Fold change /veh SAMD14 (11745864_x_at) / RFU NPB (11741838_a_at) / Fold change /veh NPB (11741838_a_at) / RFU TMPRSS6 (11731388_a_at) / Fold change /veh TMPRSS6 (11731388_a_at) / RFU KRTAP10-2 (11738614_at) / Fold change /veh KRTAP10-2 (11738614_at) / RFU ARHGAP8 /// PRR5-ARHGAP8 (11727945_x_at) / Fold change /veh ARHGAP8 /// PRR5-ARHGAP8 (11727945_x_at) / RFU KRTAP5-7 /// NADSYN1 (11734609_at) / Fold change /veh KRTAP5-7 /// NADSYN1 (11734609_at) / RFU RASL12 (11751679_a_at) / Fold change /veh RASL12 (11751679_a_at) / RFU CDKN2B (11736163_a_at) / Fold change /veh CDKN2B (11736163_a_at) / RFU PRF1 (11729649_at) / Fold change /veh PRF1 (11729649_at) / RFU, ZNF638 /// ZNF638-IT1 / Fold change vs veh, ZNF638 /// ZNF638-IT1 / RFU, PANK3 / Fold change vs veh, PANK3 / RFU, SH3YL1 / Fold change vs veh, SH3YL1 / RFU, ZEB2 / Fold change vs veh, ZEB2 / RFU, NRIP1 / Fold change vs veh, NRIP1 / RFU, PTTG1IP / Fold change vs veh, PTTG1IP / RFU, CAPN2 / Fold change vs veh, CAPN2 / RFU, MED14 / Fold change vs veh, MED14 / RFU, SNORA58 / Fold change vs veh, SNORA58 / RFU, C1orf63 / Fold change vs veh, C1orf63 / RFU, LRRFIP1 / Fold change vs veh, LRRFIP1 / RFU, NDUFAF7 / Fold change vs veh, NDUFAF7 / RFU, SLC12A2 / Fold change vs veh, SLC12A2 / RFU, IBTK / Fold change vs veh, IBTK / RFU, ESF1 / Fold change vs veh, ESF1 / Fold change vs veh, TMEM50B / RFU, TAOK1 / Fold change vs veh, TAOK1 / RFU, ACBD3 / Fold change vs veh, ACBD3 / RFU, TMA16 / Fold change vs veh, TMA16 / RFU, RWDD3 / Fold change vs veh, RWDD3 / RFU, BCAT1 / Fold change vs veh, BCAT1 / RFU, EDEM3 / Fold change vs veh, EDEM3 / RFU, TMEM33 / Fold change vs veh, TMEM33 / RFU, WDR75 / Fold change vs veh, WDR75 / RFU, AHCTF1 / Fold change vs veh, AHCTF1 / RFU, TFRC / Fold change vs veh, TFRC / RFU, ZDHHC17 / Fold change vs veh, ZDHHC17 / RFU, NOM1 / Fold change vs veh, NOM1 / RFU, ARL8B / Fold change vs veh, ARL8B / RFU, ZBTB11 / Fold change vs veh, ZBTB11 / RFU, TAMM41 / Fold change vs veh, TAMM41 / RFU, KIAA1704 /// LOC100996395 / Fold change vs veh, KIAA1704 /// LOC100996395 / RFU, ING1 / Fold change vs veh, ING1 / RFU, TRMT61B / Fold change vs veh, TRMT61B / RFU, FUBP3 / Fold change vs veh, FUBP3 / RFU, TP53 / Fold change vs veh, TP53 / RFU, TNKS2 / Fold change vs veh, TNKS2 / RFU, ZFP14 / Fold change vs veh, ZFP14 / RFU, ACTR2 / Fold change vs veh, ACTR2 / RFU, PPP3R1 / Fold change vs veh, PPP3R1 / RFU, PIK3R1 / Fold change vs veh, PIK3R1 / RFU, HNRNPA1 / Fold change vs veh, HNRNPA1 / RFU, RNF170 / Fold change vs veh, RNF170 / RFU, ZNF28 / Fold change vs veh, ZNF28 / RFU, RNGTT / Fold change vs veh, RNGTT / RFU, OGT / Fold change vs veh, OGT / RFU, BRD1 / Fold change vs veh, BRD1 / RFU, MARS / Fold change vs veh, MARS / RFU, ZNF655 / Fold change vs veh, ZNF655 / RFU, FAHD1 / Fold change vs veh, FAHD1 / RFU, BDP1 / Fold change vs veh, BDP1 / RFU, LRRCC1 / Fold change vs veh, LRRCC1 / RFU, ARID1A / Fold change vs veh, ARID1A / RFU, ZNF146 / Fold change vs veh, ZNF146 / RFU, ZNF330 / Fold change vs veh, ZNF330 / RFU, GPN3 / Fold change vs veh, GPN3 / RFU, C9orf123 / Fold change vs veh, C9orf123 / RFU, N4BP2L2 / Fold change vs veh, N4BP2L2 / RFU, ARFIP1 / Fold change vs veh, ARFIP1 / RFU, FAM179B / Fold change vs veh, FAM179B / RFU, BCL10 / Fold change vs veh, BCL10 / RFU, UHRF1BP1L / Fold change vs veh, UHRF1BP1L / RFU, BET1 / Fold change vs veh, BET1 / RFU, CNOT2 / Fold change vs veh, CNOT2 / RFU, ZNF268 / Fold change vs veh, ZNF268 / Fold change vs veh, ZNF507 / RFU, DGCR2 / Fold change vs veh, DGCR2 / RFU, WDSUB1 / Fold change vs veh, WDSUB1 / Fold change vs veh, HSP90B1 /// MIR3652 / RFU, ADSS / Fold change vs veh, ADSS / RFU, GK / Fold change vs veh, GK / RFU, ZNF148 / Fold change vs veh, ZNF148 / RFU, TAF9 / Fold change vs veh, TAF9 / RFU, SLC1A5 / Fold change vs veh, SLC1A5 / RFU, SLMO2 / Fold change vs veh, SLMO2 / RFU, ABCC4 / Fold change vs veh, ABCC4 / RFU, LOC101060439 /// RAP1B / Fold change vs veh, LOC101060439 /// RAP1B / RFU, RFX7 / Fold change vs veh, RFX7 / RFU, GTPBP10 / Fold change vs veh, GTPBP10 / RFU, CNEP1R1 / Fold change vs veh, CNEP1R1 / RFU, BIVM-ERCC5 /// ERCC5 / Fold change vs veh, BIVM-ERCC5 /// ERCC5 / RFU, ILF3 / Fold change vs veh, ILF3 / RFU 11762660_at / Fold change /veh 11762660_at / RFU VCAN (11757783_s_at) / Fold change /veh VCAN (11757783_s_at) / RFU DDX43 (11728927_at) / Fold change /veh DDX43 (11728927_at) / RFU KRT8 (11758188_x_at) / Fold change /veh KRT8 (11758188_x_at) / RFU NKD1 (11759106_at) / Fold change /veh NKD1 (11759106_at) / RFU SRD5A1 (11742802_a_at) / Fold change /veh SRD5A1 (11742802_a_at) / RFU TPSAB1 /// TPSB2 (11721975_s_at) / Fold change /veh TPSAB1 /// TPSB2 (11721975_s_at) / RFU GSTM3 (11746129_a_at) / Fold change /veh GSTM3 (11746129_a_at) / RFU IL23R (11737362_x_at) / Fold change /veh IL23R (11737362_x_at) / RFU TMEM51 (11727254_a_at) / Fold change /veh TMEM51 (11727254_a_at) / RFU PIWIL2 (11732686_x_at) / Fold change /veh PIWIL2 (11732686_x_at) / RFU ORM1 (11744905_x_at) / Fold change /veh ORM1 (11744905_x_at) / RFU CCDC152 (11743942_at) / Fold change /veh CCDC152 (11743942_at) / RFU ECM1 (11717891_a_at) / Fold change /veh ECM1 (11717891_a_at) / RFU IL23R (11748794_a_at) / Fold change /veh IL23R (11748794_a_at) / RFU TNFAIP8L3 (11732012_x_at) / Fold change /veh TNFAIP8L3 (11732012_x_at) / RFU MBOAT4 (11741988_at) / Fold change /veh MBOAT4 (11741988_at) / RFU 11764193_at / Fold change /veh 11764193_at / RFU TMEM53 (11763286_at) / Fold change /veh TMEM53 (11763286_at) / RFU MAGEB2 (11727129_at) / Fold change /veh MAGEB2 (11727129_at) / RFU TMEM200A (11744735_a_at) / Fold change /veh TMEM200A (11744735_a_at) / RFU CCDC152 (11751479_a_at) / Fold change /veh CCDC152 (11751479_a_at) / RFU FAM211A (11726209_a_at) / Fold change /veh FAM211A (11726209_a_at) / RFU RGS16 (11746705_a_at) / Fold change /veh RGS16 (11746705_a_at) / RFU VCAN (11755009_s_at) / Fold change /veh VCAN (11755009_s_at) / RFU RHOB (11743442_s_at) / Fold change /veh RHOB (11743442_s_at) / RFU RGS16 (11720943_a_at) / Fold change /veh RGS16 (11720943_a_at) / RFU RGS16 (11720944_at) / Fold change /veh RGS16 (11720944_at) / RFU, VPS4B / Fold change vs veh, VPS4B / RFU, CREB1 / Fold change vs veh, CREB1 / RFU, DNAJC13 / Fold change vs veh, DNAJC13 / RFU, GNAQ / Fold change vs veh, GNAQ / RFU, CDK5R1 / Fold change vs veh, CDK5R1 / RFU, ZRANB3 / Fold change vs veh, ZRANB3 / RFU, CUL4A / Fold change vs veh, CUL4A / RFU, CCNY / Fold change vs veh, CCNY / RFU, UFL1 / Fold change vs veh, UFL1 / RFU, COG3 / Fold change vs veh, COG3 / RFU, DIAPH2 / Fold change vs veh, DIAPH2 / RFU, SKA2 / Fold change vs veh, SKA2 / RFU, AFF3 / Fold change vs veh, AFF3 / RFU, LMF1 / Fold change vs veh, LMF1 / RFU, IPO11 / Fold change vs veh, IPO11 / RFU, DFFB / Fold change vs veh, DFFB / RFU, FOXP1 / Fold change vs veh, FOXP1 / RFU, CARD8 / Fold change vs veh, CARD8 / RFU, STRN3 / Fold change vs veh, STRN3 / RFU, ADK / Fold change vs veh, ADK / RFU, RASSF2 / Fold change vs veh, RASSF2 / RFU, WIPF1 / Fold change vs veh, WIPF1 / RFU, LARP1B / Fold change vs veh, LARP1B / RFU, RASA1 / Fold change vs veh, RASA1 / RFU, RB1 / Fold change vs veh, RB1 / RFU, PPFIA1 / Fold change vs veh, PPFIA1 / RFU, MAT2A / Fold change vs veh, MAT2A / RFU, CCT5 / Fold change vs veh, CCT5 / RFU, WDR92 / Fold change vs veh, WDR92 / RFU, CUX1 / Fold change vs veh, CUX1 / RFU, TTC7A / Fold change vs veh, TTC7A / RFU, TMEM135 / Fold change vs veh, TMEM135 / RFU, DEPTOR / Fold change vs veh, DEPTOR / RFU, CPM / Fold change vs veh, CPM / RFU, DNAJB6 / Fold change vs veh, DNAJB6 / RFU, CACNA2D3 / Fold change vs veh, CACNA2D3 / RFU, DTX4 / Fold change vs veh, DTX4 / RFU, TFCP2 / Fold change vs veh, TFCP2 / RFU, GMCL1 /// GMCL1P1 / Fold change vs veh, GMCL1 /// GMCL1P1 / RFU, AEBP2 / Fold change vs veh, AEBP2 / RFU, SNHG1 /// SNORD22 /// SNORD25 /// SNORD26 /// SNORD27 /// SNORD28 /// SNORD29 /// SNORD31 / Fold change vs veh, SNHG1 /// SNORD22 /// SNORD25 /// SNORD26 /// SNORD27 /// SNORD28 /// SNORD29 /// SNORD31 / Fold change (Aza/veh), C12orf56 (ProbeSet 11735607_a_at) / Fold change (ACY-1035/veh), C12orf56 (ProbeSet 11735607_a_at) / Fold change (Aza/veh), FGFR1OP (ProbeSet 11751329_s_at) / Fold change (ACY-1035/veh), FGFR1OP (ProbeSet 11751329_s_at) / Fold change (Aza/veh), VPS36 (ProbeSet 11739960_a_at) / Fold change (ACY-1035/veh), VPS36 (ProbeSet 11739960_a_at) / RFU SYPL1 (11715823_x_at) / Fold change /veh SYPL1 (11715823_x_at) / RFU IGFBP7 (11715501_s_at) / Fold change /veh IGFBP7 (11715501_s_at) / RFU REEP3 (11722064_at) / Fold change /veh REEP3 (11722064_at) / RFU IGLL1 (11728026_x_at) / Fold change /veh IGLL1 (11728026_x_at): dose or concentration left out as unconfirmed
Details: ProbeSet 11716331_a_at; LIST D

## Nc1ncn([C@@H]2O[C@H](CO)[C@@H](O)[C@H]2O)c(=O)n1 [azacitidine]
  Fold change vs veh, DNAJB6: 0.52
